Converted amounts (≈) assume the structure as drawn. “Also recorded” adds a separate entry of the source.
Legend:
[1] = test system: Human esophageal carcinoma Ec109 cells; experiment: MTT activity against esophageal carcinoma Ec109 cells; assay type: cell-based
Experimental: Human esophageal carcinoma Ec109 cells were taken as target cells (Henan Institute of Medical Sciences), which were cultured in RPMI1640 medium (GIBCO) with 10% fetal bovine serum (TBD) at 37° C., in 5% CO2. The cells in logarithmic growth phase were inoculated in a 96-well plate, each well containing 6×10^3 cells. After 24 hours culture, the Jiyuan oridonin A (the compound obtained in example 1), derivative 1 and derivative 2 in different concentrations were added. After continuous 48 hours culture, the medical solution was removed carefully by absorption, followed by washing with RPMI 1640 medium without fetal bovine serum 3 times. 200 μL of medium with 0.2 mg/mL MTT were added in each well and incubated at 37° C. for 4 hours. The supernatant was removed and 200 μL of DMSO was added. After 10 min of shaking, the colorimetric method was used to determine the OD value of the control group and sample groups by an enzyme-labeling instrument with a detection wavelength of 570 nm, and a reference wavelength of 450 nm. The inhibition rate against cells of drugs in different concentrations was calculated and hemi-inhibitory concentration IC50 (μg/mL) was calculated based on cell inhibition curve.

β-glucosidase = experiment: Inhibitory activity against glycosidase (β-glucosidase); assay type: biochemical, baker's yeast
Experimental: (§1) After keeping at 37° C. for 40 min, the reaction substrate, p-nitrophenyl glucoside (2.5 mM, 20 μl), was added in each well, and kept at 37° C. for 5 min. The reaction was terminated by addition of buffer, 0.1 M Na2CO3 100 μl, and the OD value was determined at 405 nm by colorimetric method. 0.067M phosphate buffer containing 10% DMSO was used instead of the compounds in negative control group. Inhibition rate=(1−OD value of experimental group/OD value of negative control group)×100%, the IC50 value was calculated by drawing.

α-glucosidase = experiment: Inhibitory activity against glycosidase (α-glucosidase); assay type: biochemical, baker's yeast
Experimental: as §1

C=C1C(=O)C23C([C@@H](O)CC1[C@H]2O)[C@]12CCCC(C)(C)C1C[C@H]3OC2O (stereo partly drawn) [Jiyuan oridonin A] was tested, and the “cytotoxic activity against Ec109 cell (conclusion in words)” value ([1]; Ec109 cell) was “higher cytotoxic activity; also recorded: highest activity”, the IC50 ([1]; Homo sapiens, ECa-109, Ec109 cells, 48 hours culture, MTT) was 4.52 µg/mL (≈ 13 µM) and the “Inhibitory activity against β-glucosidase” value (β-glucosidase; compound concentration of 1 mM) was 25.0. For the same molecule, the “inhibitory activity against β-glucosidase in vitro (conclusion in words)” value (β-glucosidase; in vitro) was “certain inhibitory activity”, the “Inhibitory activity against α-glucosidase” value (α-glucosidase; compound concentration of 1 mM) was 26.3 and the “inhibitory activity against α-glucosidase in vitro (conclusion in words)” value (α-glucosidase; in vitro) was “certain inhibitory activity”.
